{"source": "patent US20230104487A1", "about": "“11-(4-CHLOROPHENYL)-4-(2,3-DIHYDRO-1H-INDOLE-1-CARBONYL)-3,11-DIMETHYL-5,10,DIOXATRICYCLO[7.4.0.0,2,6,]TRIDECA-1,3,6,8-TETRAEN-13-ONE AND DERIVATIVES AS DESTABILIZER OF CRY1 FOR THE TREATMENT OF CIRCADIAN RHYTHM ASSOCIATED DISEASES AND DISORDERS” (KOC UNIVERSITESI, priority 2019, published 2023)", "system": "Ras transformed p53-null MEF cell line", "assay": "Apoptosis assay (PARP cleavage) with oxaliplatin", "format": "cell-based, mouse", "conditions": "0, 10 or 20 μM oxaliplatin followed by FORMULA I", "protocol": "FIGS. 6A-6B are an illustration of FORMULA I enhanced the effect of oxalipilatin in p53 null MSF cells. Ras pT24 transformed p53 null MSF fibroblast cells were treated with 0, 10 or 20 μM oxaliplatin and incubated for 24 h. Then either DMSO or FORMULA I was added and incubated for 16 h. Cells were lysed and analyzed via protein immunoblot technique. […] Bar graph was drawn normalizing to 10 μM dosage of oxaliplatin (Data represent the mean±SEM, n=4 **: p<0.005, * p<0.05 versus DMSO control by two-way ANOVA).\nIn previous studies it was reported that […] mutation sensitizes the Ras transformed p53-null cells, but not cells with wild-type p53, to apoptosis induced by UV or UV mimetic agents e.g oxaliplatin. Using fibroblasts isolated from the skin of Cry1^−/−Cry2^−/−p53^−/− and p53^−/− mice, it has been shown that Cry deletion on the p53-null background sensitized the cells to bulky-DNA adduct-induced apoptosis (Lee and Sancar, 2011). With the expectation that FORMULA I would destabilize CRY1 and increase the effectiveness of UV mimetic chemotherapeutic agents, we performed apoptosis assay with Ras transformed p53-null MEF cell lines. In this assay, cells were treated by increasing dose of oxaliplatin for 16 h followed by FORMULA I treatment for 24 h and probed for apoptosis by measuring PARP cleavage. […]", "note": "Entries after “also recorded” stand apart in the source; their conditions may differ.", "data": [{"compound": "Cc1c(C(=O)N2CCc3ccccc32)oc2ccc3c(c12)C(=O)CC(C)(c1ccc(Cl)cc1)O3", "note": "(stereo not shown) [FORMULA I, 11-(4-chlorophenyl)-4-(2,3-dihydro-1H-indole-1-carbonyl)-3,11-dimethyl-5,10,dioxatricyclo[7.4.0.0,2,6,]trideca-1,3,6,8-tetraen-13-one]", "values": [{"measurement": "oxaliplatin-induced apoptosis (cleaved PARP)", "value": "sensitized Ras transformed p53-null MEF cell line to oxaliplatin-induced apoptosis; also recorded: increases the cleaved PARP protein level"}]}]}
